{"source": "paper PMC5587642", "about": "“A Novel Benzocoumarin-Stilbene Hybrid as a DNA ligase I inhibitor with in vitro and in vivo anti-tumor activity in breast cancer models” (Scientific Reports, 2017)", "key": {"[1]": {"target": "T1, hLigIV/XRCC4 (Homo sapiens, UniProt P49917)", "T1 construct": "made in house; host or cells: E. coli Rosetta2 (DE3) pLacI", "T1 sequence (P49917 whole entry)": "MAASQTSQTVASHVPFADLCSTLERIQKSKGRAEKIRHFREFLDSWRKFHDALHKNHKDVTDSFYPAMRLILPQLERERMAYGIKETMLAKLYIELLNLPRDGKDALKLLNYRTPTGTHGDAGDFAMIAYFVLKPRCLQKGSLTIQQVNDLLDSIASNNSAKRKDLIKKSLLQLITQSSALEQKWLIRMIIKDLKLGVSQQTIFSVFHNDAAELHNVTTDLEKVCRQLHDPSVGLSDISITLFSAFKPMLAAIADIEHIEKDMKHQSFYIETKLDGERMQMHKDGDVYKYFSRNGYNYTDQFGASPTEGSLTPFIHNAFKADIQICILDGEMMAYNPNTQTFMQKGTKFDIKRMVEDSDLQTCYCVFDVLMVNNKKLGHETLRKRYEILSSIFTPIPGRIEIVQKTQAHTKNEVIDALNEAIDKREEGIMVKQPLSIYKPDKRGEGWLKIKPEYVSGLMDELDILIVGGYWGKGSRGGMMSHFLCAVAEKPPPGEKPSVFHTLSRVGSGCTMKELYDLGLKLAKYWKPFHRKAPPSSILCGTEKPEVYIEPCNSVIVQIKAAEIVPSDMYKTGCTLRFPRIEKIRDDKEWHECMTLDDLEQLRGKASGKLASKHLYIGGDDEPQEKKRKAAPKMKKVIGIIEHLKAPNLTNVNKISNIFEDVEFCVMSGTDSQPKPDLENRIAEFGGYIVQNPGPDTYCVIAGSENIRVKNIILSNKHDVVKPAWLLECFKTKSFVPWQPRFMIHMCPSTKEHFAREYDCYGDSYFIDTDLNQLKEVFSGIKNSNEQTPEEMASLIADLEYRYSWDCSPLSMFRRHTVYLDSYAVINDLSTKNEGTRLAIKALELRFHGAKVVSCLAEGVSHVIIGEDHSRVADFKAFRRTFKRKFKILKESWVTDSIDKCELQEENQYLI", "T1 sequence (Q13426 whole entry partner)": "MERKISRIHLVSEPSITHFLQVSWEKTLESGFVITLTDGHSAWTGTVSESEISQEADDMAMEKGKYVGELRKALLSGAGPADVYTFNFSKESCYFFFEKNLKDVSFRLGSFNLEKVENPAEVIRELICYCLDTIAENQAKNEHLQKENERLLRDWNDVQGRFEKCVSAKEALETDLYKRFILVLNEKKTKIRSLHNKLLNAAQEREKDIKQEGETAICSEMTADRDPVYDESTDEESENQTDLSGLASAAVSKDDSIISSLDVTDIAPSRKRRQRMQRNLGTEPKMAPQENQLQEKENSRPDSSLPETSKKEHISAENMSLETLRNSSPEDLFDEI", "test": "In-vitro DNA ligation assay", "assay_type": "biochemical", "details": "5, 10 and 20 µM", "description": "(§1) DNA ligation assay was performed as described previously. […] After the incubation, gel images were captured and analyzed by Image Quant LAS4010 software."}, "[2]": {"target": "T2, hLigIIIβ (Homo sapiens, UniProt P49916)", "T2 construct": "made in house; host or cells: E. coli Rosetta2 (DE3) pLacI", "T2 sequence (P49916 43-949 isoform P49916-2 limits assumed)": "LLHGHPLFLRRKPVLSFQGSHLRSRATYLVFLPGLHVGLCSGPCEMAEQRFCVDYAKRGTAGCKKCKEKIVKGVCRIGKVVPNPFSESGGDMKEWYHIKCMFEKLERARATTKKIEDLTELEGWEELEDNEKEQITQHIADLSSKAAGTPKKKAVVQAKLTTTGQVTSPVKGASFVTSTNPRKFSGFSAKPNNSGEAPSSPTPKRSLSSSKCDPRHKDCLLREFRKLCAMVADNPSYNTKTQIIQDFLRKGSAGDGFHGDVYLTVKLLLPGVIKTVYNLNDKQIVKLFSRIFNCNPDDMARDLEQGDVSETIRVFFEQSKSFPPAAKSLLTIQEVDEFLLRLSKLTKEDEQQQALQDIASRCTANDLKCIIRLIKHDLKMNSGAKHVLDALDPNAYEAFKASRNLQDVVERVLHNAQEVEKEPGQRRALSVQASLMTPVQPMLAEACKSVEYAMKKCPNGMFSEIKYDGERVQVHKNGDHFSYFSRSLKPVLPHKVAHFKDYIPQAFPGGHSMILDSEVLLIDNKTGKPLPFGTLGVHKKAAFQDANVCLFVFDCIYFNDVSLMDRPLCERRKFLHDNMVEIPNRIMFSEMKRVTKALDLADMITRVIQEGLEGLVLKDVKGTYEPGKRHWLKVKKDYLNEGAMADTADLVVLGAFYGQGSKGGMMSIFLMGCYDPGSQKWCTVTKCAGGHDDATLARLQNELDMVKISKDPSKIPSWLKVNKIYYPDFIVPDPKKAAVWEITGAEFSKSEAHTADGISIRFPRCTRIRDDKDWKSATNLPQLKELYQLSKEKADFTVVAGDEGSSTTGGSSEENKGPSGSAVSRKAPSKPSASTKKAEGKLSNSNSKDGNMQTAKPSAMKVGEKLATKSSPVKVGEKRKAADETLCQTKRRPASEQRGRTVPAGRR", "test": "In-vitro DNA ligation assay", "assay_type": "biochemical", "details": "5, 10 and 20 µM", "description": "as §1"}, "[3]": {"target": "T4 DNA ligase (Enterobacteria phage T4, UniProt P00970)", "sequence (P00970 whole entry)": "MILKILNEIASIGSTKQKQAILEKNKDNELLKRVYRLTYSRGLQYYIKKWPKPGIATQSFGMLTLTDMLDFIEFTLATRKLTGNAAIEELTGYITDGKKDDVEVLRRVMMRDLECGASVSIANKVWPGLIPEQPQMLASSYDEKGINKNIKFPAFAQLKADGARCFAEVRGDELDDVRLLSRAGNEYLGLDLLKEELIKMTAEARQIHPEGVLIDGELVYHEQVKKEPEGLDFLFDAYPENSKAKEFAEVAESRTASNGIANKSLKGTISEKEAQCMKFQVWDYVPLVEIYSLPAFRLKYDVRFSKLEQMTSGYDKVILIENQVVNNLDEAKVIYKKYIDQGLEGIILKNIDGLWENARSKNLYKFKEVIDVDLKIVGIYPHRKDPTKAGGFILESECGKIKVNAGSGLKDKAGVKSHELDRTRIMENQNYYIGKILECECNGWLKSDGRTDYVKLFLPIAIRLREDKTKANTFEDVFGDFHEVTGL", "test": "In-vitro DNA ligation assay", "assay_type": "biochemical", "details": "5, 10 and 20 µM", "description": "as §1"}, "[4]": {"target": "T3, hLigI (Homo sapiens, UniProt P18858)", "T3 construct": "made in house", "T3 sequence (P18858 whole entry)": "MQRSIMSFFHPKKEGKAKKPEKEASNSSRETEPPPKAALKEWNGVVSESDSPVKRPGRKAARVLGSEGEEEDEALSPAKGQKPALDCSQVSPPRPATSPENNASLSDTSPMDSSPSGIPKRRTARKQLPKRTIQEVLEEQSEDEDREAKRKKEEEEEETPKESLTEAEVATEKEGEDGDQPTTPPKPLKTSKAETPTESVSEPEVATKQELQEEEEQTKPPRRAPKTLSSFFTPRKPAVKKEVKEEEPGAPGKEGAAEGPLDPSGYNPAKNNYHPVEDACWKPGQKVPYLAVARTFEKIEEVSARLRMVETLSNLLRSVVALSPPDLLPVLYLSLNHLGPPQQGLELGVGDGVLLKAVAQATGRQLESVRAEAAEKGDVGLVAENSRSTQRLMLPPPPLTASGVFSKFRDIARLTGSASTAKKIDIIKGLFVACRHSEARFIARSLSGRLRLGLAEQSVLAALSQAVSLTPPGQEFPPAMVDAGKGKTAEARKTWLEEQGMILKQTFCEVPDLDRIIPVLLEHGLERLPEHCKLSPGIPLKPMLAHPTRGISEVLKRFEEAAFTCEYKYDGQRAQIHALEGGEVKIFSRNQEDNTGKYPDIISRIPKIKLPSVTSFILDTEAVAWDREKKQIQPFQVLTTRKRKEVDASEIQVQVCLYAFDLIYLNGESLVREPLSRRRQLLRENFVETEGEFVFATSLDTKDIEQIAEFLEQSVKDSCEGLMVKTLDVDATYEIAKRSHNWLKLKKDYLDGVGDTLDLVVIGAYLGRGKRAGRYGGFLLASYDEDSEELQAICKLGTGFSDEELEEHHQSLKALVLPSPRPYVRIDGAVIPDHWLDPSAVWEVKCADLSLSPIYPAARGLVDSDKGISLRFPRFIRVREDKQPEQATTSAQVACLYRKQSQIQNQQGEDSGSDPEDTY", "test": "In-vitro DNA ligation assay", "assay_type": "biochemical", "description": "as §1"}, "[5]": {"target": "PARP1 (Homo sapiens, UniProt P09874)", "sequence (P09874 whole entry)": "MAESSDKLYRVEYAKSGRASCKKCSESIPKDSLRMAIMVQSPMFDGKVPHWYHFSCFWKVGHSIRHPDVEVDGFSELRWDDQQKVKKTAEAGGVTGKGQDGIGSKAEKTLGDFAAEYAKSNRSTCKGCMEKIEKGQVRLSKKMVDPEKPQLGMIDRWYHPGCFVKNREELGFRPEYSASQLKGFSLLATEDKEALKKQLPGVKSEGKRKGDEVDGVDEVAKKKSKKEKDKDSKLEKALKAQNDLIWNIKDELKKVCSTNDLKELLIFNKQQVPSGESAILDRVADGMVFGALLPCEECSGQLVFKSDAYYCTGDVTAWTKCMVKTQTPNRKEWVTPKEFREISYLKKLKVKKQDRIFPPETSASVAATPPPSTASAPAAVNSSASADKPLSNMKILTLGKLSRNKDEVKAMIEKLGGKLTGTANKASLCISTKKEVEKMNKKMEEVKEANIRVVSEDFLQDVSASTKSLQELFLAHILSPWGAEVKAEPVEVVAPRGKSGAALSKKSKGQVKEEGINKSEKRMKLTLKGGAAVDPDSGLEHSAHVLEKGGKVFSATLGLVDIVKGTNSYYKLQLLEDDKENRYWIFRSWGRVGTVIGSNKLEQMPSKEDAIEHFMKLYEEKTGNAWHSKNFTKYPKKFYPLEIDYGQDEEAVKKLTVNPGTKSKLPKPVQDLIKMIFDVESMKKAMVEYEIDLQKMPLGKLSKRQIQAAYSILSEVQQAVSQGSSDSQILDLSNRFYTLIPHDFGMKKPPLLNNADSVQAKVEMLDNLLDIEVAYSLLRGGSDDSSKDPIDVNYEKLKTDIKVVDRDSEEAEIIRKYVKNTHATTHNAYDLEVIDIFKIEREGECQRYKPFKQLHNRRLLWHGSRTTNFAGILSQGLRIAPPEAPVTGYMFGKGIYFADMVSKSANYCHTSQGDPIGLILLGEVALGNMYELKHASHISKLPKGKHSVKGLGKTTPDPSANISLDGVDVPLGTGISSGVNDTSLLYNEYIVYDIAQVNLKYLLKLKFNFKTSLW", "test": "PARP1 activity assay (NAD fluorescence)", "details": "compound 19 at 5, 10 and 20 µM", "quoted_text": "Human PARP1 full length protein was purified as described previously ^4,5.\nSamples were cooled and fluorescence measurement carried out at excitation 360nm and emission range 445nm."}, "[6]": {"system": "MCF-10A (Normal breast epithelial cells)", "test": "MTT cell viability assay", "assay_type": "cell-based, human", "description": "(§2) Cell viability assay was performed as described previously. Briefly, cells were seeded in 96 well plates and treated with different concentrations of compound 19 for 48 h. After drug treatment, MTT reagent was added in each well of the plate and cell viability was quantified by measuring the absorbance at 590 nm."}, "[7]": {"system": "MDA-MB-231 cells", "test": "MTT cell viability assay", "assay_type": "cell-based, human", "details": "for IC50: MTT, 48 h", "description": "as §2"}, "[8]": {"system": "MDA-MB-231 cells", "test": "Comet assay", "assay_type": "cell-based, human", "details": "12 µM, 48 h", "description": "Comet assay was performed as described by Olive et al ^3 with slight modifications. MDA-MB-231 cells treated with compound 19 at 12µM for 48h. The harvested cells were mixed with low melting point agarose and pipet the 200μl of cell suspension onto agarose coated surface of frosted slides. The samples were lysed for overnight at 4 °C after the lysis, electrophoresis performed at 40mA for 30mins. The slides neutralized by water, stained with propidium iodide and images were captured by fluorescence microscope. As shown in Supplementary Fig. 71 the treated samples (B) have increased length of DNA tail as compared to control sample (A). This increase in the tail length of DNA occurs due to DNA damage which is induced by compound 19 in MDA-MB-231 cells."}, "[9]": {"target": "T4, flap cleavage activity (FEN1) in MDA-MB-231 cell lysate (Homo sapiens, UniProt P39748)", "T4 construct": "endogenous in cells; host or cells: MDA-MB-231", "T4 sequence (P39748 whole entry)": "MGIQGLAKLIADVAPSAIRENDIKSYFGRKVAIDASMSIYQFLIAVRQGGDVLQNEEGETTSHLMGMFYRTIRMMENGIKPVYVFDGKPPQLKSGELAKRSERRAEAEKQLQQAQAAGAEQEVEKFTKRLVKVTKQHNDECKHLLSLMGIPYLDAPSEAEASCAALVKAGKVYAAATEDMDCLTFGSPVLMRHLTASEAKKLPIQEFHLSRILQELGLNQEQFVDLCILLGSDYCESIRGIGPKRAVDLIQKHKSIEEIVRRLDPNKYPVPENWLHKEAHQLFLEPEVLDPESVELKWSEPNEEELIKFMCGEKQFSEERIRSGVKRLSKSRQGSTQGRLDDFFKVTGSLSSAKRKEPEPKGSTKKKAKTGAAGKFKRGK", "test": "Ex-vivo flap cleavage with lysate of treated cells", "assay_type": "cell-based", "details": "MDA-MB-231, treated 48 h", "description": "(§3) Cells (MDA-MB-231) were seeded in 6 well plates and treated either with vehicle control (DMSO) or with different concentrations (6 and 12 µM) of compound 19 for 48 h. After the treatment cell lysate was prepared and western blotting was performed as described previously. Briefly, the cells were lysed by very brief sonication. Sonicated samples were centrifuged and the supernatant was collected and used for ligation assay and western blotting.\nThe MDA-MB-231 and 4T1 cells were treated with different concentrations of compound 19 for 48h. Cell lysate were prepared as described previously ^6 for the ligation assay. Here we used same DNA substrate which was used in FEN1 flap cleavage assay so that we can check the activity of hLigI and FEN1 proteins in compound 19 treated samples. The reactions were performed as described previously ^6. In the Supplementary Fig. 74 cleaved product remain (25 mer) same. This cleaved product occurs after the cleavage of 25+6 mer oligo by FEN1 protein, since the cleaved product (25 mer) remains same in treated as well as in control samples we can conclude that the compound 19 unable to inhibit the FEN1 protein inside the cells. The cleaved product (25 mer) make a double strand nicked substrate for hLig I protein with 27 mer and 52 mer oligo used in the reaction. hLigI protein gives rise to ligated (52 mer oligo) product after the completion of reaction. […]"}, "[10]": {"target": "T5, hLigI and DNA complex (Homo sapiens, UniProt P18858)", "T5 construct": "made in house", "T5 sequence (P18858 whole entry, one chain of several)": "as the sequence (P18858 whole entry) above", "test": "Electrophoretic mobility shift assay (EMSA)", "assay_type": "binding", "details": "120, 250, 500 µM", "description": "EMSA was performed as described previously. Briefly, in 20 μl reaction volume 2 pmol non-ligatable nicked DNA substrate was incubated with DMSO (vehicle control) or with different concentrations (120, 250, 500 µM) of compound 19 incubated with 10 pmol of hligI in ligation buffer. After the incubation, samples were separated by 6.5% native PAGE and bands were detected and imaged by Image Quant LAS 4010 (GE Life sciences)."}, "[11]": {"system": "DNA ligase activity in 4T1 cell lysate", "test": "Ex-vivo ligation assay with lysate of treated cells", "assay_type": "cell-based, mouse", "details": "4T1, treated 48 h", "description": "The MDA-MB-231 and 4T1 cells were treated with different concentrations of compound 19 for 48h. Cell lysate were prepared as described previously ^6 for the ligation assay. Here we used same DNA substrate which was used in FEN1 flap cleavage assay so that we can check the activity of hLigI and FEN1 proteins in compound 19 treated samples. The reactions were performed as described previously ^6. In the Supplementary Fig. 74 cleaved product remain (25 mer) same. This cleaved product occurs after the cleavage of 25+6 mer oligo by FEN1 protein, since the cleaved product (25 mer) remains same in treated as well as in control samples we can conclude that the compound 19 unable to inhibit the FEN1 protein inside the cells. The cleaved product (25 mer) make a double strand nicked substrate for hLig I protein with 27 mer and 52 mer oligo used in the reaction. hLigI protein gives rise to ligated (52 mer oligo) product after the completion of reaction. In the treated samples, ligated product (52 mer) decreases as compared to untreated samples."}, "[12]": {"system": "MDA-MB-231 cells", "test": "Western blotting of DNA damage and apoptosis markers", "assay_type": "cell-based, human", "details": "6 and 12 µM, 48 h", "description": "as §3"}}}
{"smiles": "COc1cc(/C=C/c2cc(=O)oc3c2ccc2ccccc23)cc(OC)c1", "note": "[Compound 19, (E)-4-(3,5-dimethoxystyryl)-2H-benzo[h]chromen-2-one]", "values": [{"measurement": "Inhibition of hLigIV/XRCC4 ligation activity", "setting": "[1]", "value": "unaffected"}, {"measurement": "Inhibition of hLigIIIβ ligation activity", "setting": "[2]", "value": "unaffected"}, {"measurement": "Inhibition of T4 DNA ligase activity", "setting": "[3]", "value": "unaffected"}, {"measurement": "Antiligase activity, compound versus parent molecules", "setting": "[4]; 20 µM", "value": "significantly better antiligase activity"}, {"measurement": "Inhibition of hLigI ligation activity", "setting": "[4]; 5, 10 and 20 µM", "value": "specifically inhibits the activity of hLigI"}, {"measurement": "Inhibition of PARP1 activity", "setting": "[5]", "value": "not able to inhibit"}, {"measurement": "% Inhibition of cell viability at 10 µM, MCF-10A (Normal breast epithelial cells)", "setting": "[6]", "value": 50.83, "unit": "%"}, {"measurement": "% Inhibition of cell viability at 10 µM, MDA-MB-231 (Breast)", "setting": "[7]; 10 µM", "value": 51.35, "unit": "%"}, {"measurement": "inhibition at 10 µM", "setting": "[7]; Homo sapiens, MDA-MB-231, 48 h, 10 μM, % inhibition, read-out: Antiproliferative activity at 10μM in MDA-MB-231", "value": "> 50", "unit": "%"}, {"measurement": "IC50", "setting": "[7]; Homo sapiens, MDA-MB-231, 48 h", "value": "12.5 ± 2.8", "unit": "µM"}, {"measurement": "Comparative cell viability versus parent compounds", "setting": "[7]; MDA-MB-231, versus Neo-tanshinlactone and resveratrol", "value": "more active as compared to parent compounds"}, {"measurement": "IC50", "setting": "[7]", "value": 12, "unit": "µM"}, {"measurement": "DNA tail length (comet assay)", "setting": "[8]", "value": "significant increase in the tail length of treated cells"}, {"measurement": "Flap cleavage activity of lysate of treated cells", "setting": "[9]", "value": "remained unaffected"}, {"measurement": "hLigI and DNA complex formation (EMSA)", "setting": "[10]", "value": "decreased the hLigI and DNA complex formation"}, {"measurement": "DNA ligase activity in cell free extracts of treated cells", "setting": "[11]", "value": "can inhibit DNA ligase activity"}, {"measurement": "Apoptotic signaling (p53, MDM2, PCNA, caspase 9, caspase 3, PARP-1)", "setting": "[12]", "value": "promotes p53 mediated intrinsic pathway of apoptosis"}, {"measurement": "DNA damage marker γH2AX expression", "setting": "[12]", "value": "increased expression of γH2AX"}]}
